Experimental data reported in ChEMBL document CHEMBL5338767, “A Molecular Toolbox of Positron Emission Tomography Tracers for General Anesthesia Mechanism Research” (J Med Chem, 2023).

Legend:
[1] = Lipophilicity, logD of compound at pH 7; conditions: buffer
[2] = target: Neuronal acetylcholine receptor subunit alpha-7 (Homo sapiens, UniProt P36544); experiment: Binding affinity to human nACh alpha7 receptor assessed as inhibition constant
[3] = target: Neuronal acetylcholine receptor subunit alpha-7 (Rattus norvegicus, UniProt Q05941); experiment: Binding affinity to rat nACh alpha7 receptor assessed as inhibition constant
Chain of Neuronal acetylcholine receptor subunit alpha-7 (Rattus norvegicus, UniProt Q05941) (Q05941 whole entry): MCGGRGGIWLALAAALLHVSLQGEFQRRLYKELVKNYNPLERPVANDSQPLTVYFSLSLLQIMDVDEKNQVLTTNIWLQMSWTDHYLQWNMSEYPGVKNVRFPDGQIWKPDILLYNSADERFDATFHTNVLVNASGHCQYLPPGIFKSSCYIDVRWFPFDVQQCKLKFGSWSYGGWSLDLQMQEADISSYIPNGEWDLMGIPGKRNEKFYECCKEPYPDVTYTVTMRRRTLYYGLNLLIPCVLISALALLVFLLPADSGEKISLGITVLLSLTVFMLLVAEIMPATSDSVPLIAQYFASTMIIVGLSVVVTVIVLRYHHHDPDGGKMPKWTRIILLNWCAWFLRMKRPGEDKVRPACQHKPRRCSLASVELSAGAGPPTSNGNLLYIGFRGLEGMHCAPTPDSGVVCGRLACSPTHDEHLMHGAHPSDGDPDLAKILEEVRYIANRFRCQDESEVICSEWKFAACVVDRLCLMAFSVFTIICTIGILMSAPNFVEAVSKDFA

[4] = Dissociation constant, pKa of the compound; format: physicochemical
[5] = Lipophilicity, logP of the compound; conditions: octanol/water
[6] = Stability in human plasma incubated upto 60 mins; format: ADME, cell-free; conditions: read-out: Stability
[7] = Stability in Sprague-Dawley rat plasma assessed as parent compound remaining measured after 60 mins; format: ADME, cell-free; conditions: read-out: Stability
[8] = Stability in Sprague-Dawley rat plasma assessed as parent compound remaining measured after 30 mins; format: ADME, cell-free; conditions: read-out: Stability
[9] = Drug distribution in Sprague-Dawley rat liver at 1 mg/kg, iv measured at 10 mins in presence of ETO; format: ADME, organism-based; conditions: in vivo
[10] = Stability in Sprague-Dawley rat plasma assessed as parent compound remaining measured after 10 mins; format: ADME, cell-free; conditions: read-out: Stability
[11] = Drug distribution in Sprague-Dawley rat adrenal gland at 1 mg/kg, iv measured at 10 mins in presence of ETO; format: ADME, organism-based; conditions: in vivo
[12] = target: Neuronal acetylcholine receptor; alpha4/beta2 (Homo sapiens, UniProt P17787+P43681); experiment: Binding affinity to nACh alpha4beta2 receptor (unknown origin) assessed as inhibition constant; format: protein-complex assay
Chain of Neuronal acetylcholine receptor; alpha4/beta2 (P17787 whole entry): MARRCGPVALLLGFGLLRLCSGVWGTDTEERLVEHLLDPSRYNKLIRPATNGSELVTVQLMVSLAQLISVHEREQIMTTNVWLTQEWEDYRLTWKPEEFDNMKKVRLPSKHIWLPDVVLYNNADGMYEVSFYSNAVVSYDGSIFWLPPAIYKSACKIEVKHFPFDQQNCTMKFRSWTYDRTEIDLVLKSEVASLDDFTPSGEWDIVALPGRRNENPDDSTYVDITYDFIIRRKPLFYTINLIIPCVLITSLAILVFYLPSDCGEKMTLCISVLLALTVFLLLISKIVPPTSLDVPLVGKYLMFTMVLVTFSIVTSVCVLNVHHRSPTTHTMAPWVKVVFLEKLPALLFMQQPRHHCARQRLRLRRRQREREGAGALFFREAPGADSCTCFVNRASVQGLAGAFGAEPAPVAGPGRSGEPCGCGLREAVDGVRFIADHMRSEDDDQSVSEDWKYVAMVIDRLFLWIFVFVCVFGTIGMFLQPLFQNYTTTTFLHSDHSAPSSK
Chain of Neuronal acetylcholine receptor; alpha4/beta2 (P43681 whole entry): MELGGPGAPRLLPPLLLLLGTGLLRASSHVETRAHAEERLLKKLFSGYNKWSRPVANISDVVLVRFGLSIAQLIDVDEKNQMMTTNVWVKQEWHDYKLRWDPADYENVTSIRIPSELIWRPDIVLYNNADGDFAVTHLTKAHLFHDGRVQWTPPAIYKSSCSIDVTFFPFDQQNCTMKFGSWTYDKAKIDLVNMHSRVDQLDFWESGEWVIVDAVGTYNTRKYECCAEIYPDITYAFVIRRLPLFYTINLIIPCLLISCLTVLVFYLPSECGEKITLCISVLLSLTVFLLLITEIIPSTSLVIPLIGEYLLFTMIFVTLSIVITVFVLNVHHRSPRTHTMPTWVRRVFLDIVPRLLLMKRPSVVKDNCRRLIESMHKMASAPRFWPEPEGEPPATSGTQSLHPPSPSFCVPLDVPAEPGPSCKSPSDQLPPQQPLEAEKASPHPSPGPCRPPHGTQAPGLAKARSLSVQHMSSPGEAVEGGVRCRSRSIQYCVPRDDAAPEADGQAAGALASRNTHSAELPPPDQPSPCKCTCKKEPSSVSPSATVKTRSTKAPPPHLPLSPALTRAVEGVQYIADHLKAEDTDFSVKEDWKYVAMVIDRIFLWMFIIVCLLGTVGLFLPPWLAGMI

[13] = Drug distribution in rat brain assessed as maximum binding; format: ADME, tissue-based; conditions: in vivo
[14] = Drug distribution in rat brain assessed as dissociation constant; format: ADME, tissue-based
[15] = target: T1, Alpha-2C adrenergic receptor (Homo sapiens, UniProt P18825); experiment: Binding affinity to alpha2C receptor (unknown origin)
T1 sequence (P18825 whole entry): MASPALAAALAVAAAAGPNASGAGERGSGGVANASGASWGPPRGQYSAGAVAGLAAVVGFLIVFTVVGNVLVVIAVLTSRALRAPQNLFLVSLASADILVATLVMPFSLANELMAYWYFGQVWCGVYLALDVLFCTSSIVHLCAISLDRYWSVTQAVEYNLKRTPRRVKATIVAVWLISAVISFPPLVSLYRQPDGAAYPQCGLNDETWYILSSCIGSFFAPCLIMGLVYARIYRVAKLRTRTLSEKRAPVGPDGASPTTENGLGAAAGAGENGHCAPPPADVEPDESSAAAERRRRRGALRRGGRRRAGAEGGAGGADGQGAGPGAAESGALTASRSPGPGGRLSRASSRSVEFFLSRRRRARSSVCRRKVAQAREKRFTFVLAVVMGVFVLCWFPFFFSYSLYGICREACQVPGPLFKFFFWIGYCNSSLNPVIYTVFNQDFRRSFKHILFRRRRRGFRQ

[16] = target: T2, Alpha-2A adrenergic receptor (Homo sapiens, UniProt P08913); experiment: Binding affinity to alpha2A receptor (unknown origin)
T2 sequence (P08913 whole entry): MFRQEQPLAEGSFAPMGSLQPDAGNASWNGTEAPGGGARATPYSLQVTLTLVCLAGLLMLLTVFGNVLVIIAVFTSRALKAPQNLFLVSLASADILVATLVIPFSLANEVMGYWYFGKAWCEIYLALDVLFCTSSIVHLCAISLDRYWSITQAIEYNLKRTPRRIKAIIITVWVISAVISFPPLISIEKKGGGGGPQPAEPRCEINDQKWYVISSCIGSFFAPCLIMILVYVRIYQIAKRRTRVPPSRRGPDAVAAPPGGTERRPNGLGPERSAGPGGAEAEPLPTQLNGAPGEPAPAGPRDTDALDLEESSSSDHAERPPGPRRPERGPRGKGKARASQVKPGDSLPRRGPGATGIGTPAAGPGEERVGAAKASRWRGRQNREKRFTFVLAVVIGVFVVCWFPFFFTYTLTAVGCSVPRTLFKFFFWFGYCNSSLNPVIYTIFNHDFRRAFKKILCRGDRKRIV

[17] = target: T3, Alpha-2B adrenergic receptor (Homo sapiens, UniProt P18089); experiment: Binding affinity to alpha2B receptor (unknown origin)
T3 sequence (P18089 whole entry): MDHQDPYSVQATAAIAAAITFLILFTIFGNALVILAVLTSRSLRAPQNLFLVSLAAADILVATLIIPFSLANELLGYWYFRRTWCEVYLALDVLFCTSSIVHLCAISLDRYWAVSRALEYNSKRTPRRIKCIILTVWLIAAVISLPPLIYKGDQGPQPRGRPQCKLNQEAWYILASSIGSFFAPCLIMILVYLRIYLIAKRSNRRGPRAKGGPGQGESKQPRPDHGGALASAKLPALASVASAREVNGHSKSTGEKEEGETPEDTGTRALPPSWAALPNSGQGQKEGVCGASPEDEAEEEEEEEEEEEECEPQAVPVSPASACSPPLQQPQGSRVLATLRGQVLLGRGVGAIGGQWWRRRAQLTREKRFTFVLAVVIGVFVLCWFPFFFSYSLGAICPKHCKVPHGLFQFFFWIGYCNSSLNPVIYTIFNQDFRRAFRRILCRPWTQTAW

Chain of Neuronal acetylcholine receptor subunit alpha-7 (Homo sapiens, UniProt P36544) (P36544 whole entry): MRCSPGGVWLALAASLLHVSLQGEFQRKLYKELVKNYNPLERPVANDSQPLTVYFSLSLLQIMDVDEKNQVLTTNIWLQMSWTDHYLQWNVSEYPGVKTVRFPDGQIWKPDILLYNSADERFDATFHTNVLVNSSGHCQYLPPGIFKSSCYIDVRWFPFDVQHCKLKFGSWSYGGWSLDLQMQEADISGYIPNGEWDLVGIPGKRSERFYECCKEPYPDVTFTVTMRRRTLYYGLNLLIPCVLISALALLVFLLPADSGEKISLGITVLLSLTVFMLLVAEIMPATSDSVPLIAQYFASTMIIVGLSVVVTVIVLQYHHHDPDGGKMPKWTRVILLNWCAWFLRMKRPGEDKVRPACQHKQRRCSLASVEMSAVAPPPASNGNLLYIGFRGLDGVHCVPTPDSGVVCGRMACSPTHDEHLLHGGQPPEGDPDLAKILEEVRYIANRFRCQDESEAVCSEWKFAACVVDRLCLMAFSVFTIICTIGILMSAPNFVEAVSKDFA

SMILES	logD [1]	pKa [4]	logP [5]	also measured
[11CH3]c1ccc(OC(=O)N2CCN3CCC2CC3)cc1	1.89	8.19	1.95	Ki [2]: 14 nM; Ki [3]: 22 nM; remaining at 1 h [6]: > 80%
COC(=O)c1cncn1[C@H](C)c1ccc([18F])cc1	2.82	4.08	1.65	remaining at 1 h [7]: 2%; remaining at 0.5 h [8]: 8%; Drug uptake [9]: 66%; remaining at 10 min [10]: 13%; Drug uptake [11]: 39%
[18F]c1ccc(-c2nnc(N3CCN4CCC3CC4)o2)cc1	-0.82	8.44	2.34	Ki [12]: > 10 µM
[18F]c1ccc(OC[C@H]2CCN2)cn1	-2.02	9.01	0.66	Bmax [13]: 3.7 pmol/g; Kd [14]: 0.028 nM
[11CH3]OCc1cccnc1N1CCN(C[C@H]2COc3ccccc3O2)CC1 [ORM-13070 C-11]	1.94	7.23	2.51	Kd [15]: 3.8 nM; Kd [16]: 109 nM; Kd [17]: 23 nM
